Test results as given in patent US7855200B2, “Method for treatment of gastric ulcers and ulcers induced by aspirin” (Council of Scientific and Industrial Research, priority 2006, dated 2010).

Tests used:
Type in all cases: in vivo, albino rats
[1] = tested on: gastric ulceration in cold restraint rats; assay: Cold restraint (stress) induced ulcers; design: Ulcer index Mean(SE): scale not given here; details: rats, 25 mg/kg per orally, 4° C. for 2 hours; for inhibition at 25 mg/kg: Rattus norvegicus, po
Source text: (§1) The compounds taken under study for antigastric ulcer screening by four different models were selected using experimental albino rats: • 1. Aspirin induced gastric ulceration • 2. Pylorus ligated gastric ulceration • 3. Ethanol induced gastric ulceration • 4. Stress induced gastric ulceration
(§2) The commercially available drug ranitidine (sigma), Omeprazole (sigma) and sucralfate (Merck) were used as reference standard in experimental models. The Tween-80 (SD fine chemicals) was used as vehicle for the administration of the drug, which is used as control.
(§3) The antiulcer activity of the compounds was studied. The animals were divided into 21 groups of 7 animals each. Group 1 received the vehicle Tween 80 (1%, 1 ml) which served as the control. Group 2 received ranitidine at a dose of 50-mg/kg body weight, which served as standard for comparison. Group 3 to 21 at a dose of 25 mg/kg body weight. Animals were deprived of food 48 hours before the experiment. The water was allowed for free access. Rats were administered per orally with compounds and the drug ranitidine. The water was removed 1 hour before restraint and exposed to a temperature of 4° C. for 2 hours. Two hours after stress, the animals were sacrificed. The stressed animals were opened along the greater curvature and the severity of gastric ulcer was assessed in terms of mean ulcer index. 2.
as §3, with “8” for “21”, “6” for “7”, “50, 25, 15, 10 and 5” for “25”, “weight respectively.” for “weight.”, “index.” for “index. 2.”

[2] = tested on: acetyl salicylic acid induced gastric lesions; assay: Acetyl salicylic acid (aspirin) induced gastric ulcer; design: Ulcer index Mean(SE): scale not given here; details: rats, 25 mg/kg per orally daily for five days, aspirin 200 mg/kg; for inhibition at 25 mg/kg: Rattus norvegicus, po, 120 h
Description: Stress induced gastric ulceration The commercially available drug ranitidine (sigma), Omeprazole (sigma) and sucralfate (Merck) were used as reference standard in experimental models. The Tween-80 (SD fine chemicals) was used as vehicle for the administration of the drug, which is used as control. Antiulcer activity of the compounds under taken was studied. The animals were divided into 20 groups of 6 animals each. Group 1 received the vehicle Tween 80 (1%, 1 ml) which served as the control. Group 2 received ranitidine at a dose of 50-mg/kg body weight, which served as standard for comparison. Group 3 to 20 at a dose of 25 mg/kg body weight. Rats were administered per orally with a daily dose of the compounds and the drug ranitidine for a period of five days and then fasted for 24 hours. The […] acetyl salicylic acid (aspirin) at a dose of 200 mg/kg body weight was administered as a suspension in tween-80 (1%), 30 min after the drug administration each day. All drugs were administered orally on the 6th day after the last administration of the drugs and the ulcer inducing agent aspirin, the rats were killed by cervical dislocation and their stomach were opened along the greater curvature and washed with luke warm saline and examined under a dissecting microscope. The ulcer index was calculated for each stomach. […] The antiulcer activity of the compounds was studied. The animals were divided into 19 groups of 6 animals each. Group 1 received the vehicle Tween 80 (1%, 1 ml) which served as the control. Group 2 received ranitidine at a dose of 50-mg/kg-body weight, which served as standard for comparison. […] Rats were administered per orally with a daily dose of the compounds and the drug ranitidine to respective groups for a period of five days and then fasted for 24 hours. The […] acetyl salicylic acid (aspirin) at a dose of 200 mg/kg body weight was administered as a suspension in tween-80 (1%), 30 min after the drug administration each day. All drugs were administered orally on ht […] day after the last administration of the drugs and the ulcer inducing agent aspirin, the rats were killed by cervical dislocation and their stomach were opened along the greater curvature and washed with luke warm saline and examined under a dissecting microscope.

[3] = tested on: ethanol induced gastric ulcers; assay: Ethanol induced ulcers; details: rats, 25 mg/kg, ethanol challenge; for Acidity Total mEg / Gastric content / pH: 4 hours after pylorus ligation; for inhibition at 25 mg/kg: Rattus norvegicus
Description: Stress induced gastric ulceration The commercially available drug ranitidine (sigma), Omeprazole (sigma) and sucralfate (Merck) were used as reference standard in experimental models. The Tween-80 (SD fine chemicals) was used as vehicle for the administration of the drug, which is used as control. The animals were divided into 22 groups of 6 animals each. Animals were deprived of food for 48 hours but had free access to water. Group 1 received the vehicle Tween 80 (1%, 1 ml) which served as the control. Group 2 received ranitidine at a dose of 50-mg/kg-body weight, which served as standard for comparison. Group 3 to received Omeprazole at a dose of 30-mg/kg body weight, which served as standard for comparison. Group 4 received sucralfate at a dose of 400-mg/kg body weight, which served as standard for comparison. Group 5 to 22 received at a dose of 25 mg/kg body weight. Lesions were induced 1 hour after ethanol challenge animals. The stomach was ligated at the pylorus under ether anesthesia. 4 hours after pylorus ligation, the animals were sacrificed and the contents drained and centrifuges at 5000 rpm for 10 minutes. Aliquots of supernatant were used for determination of total acid by titrating with 0.01N NaOH using topfers reagent and phenolphthalein indicators. […] The animals were divided into 9 groups of 6 animals each. Animals were deprived of food for 48 hours but had free access to water. Group 1 received the vehicle Tween 80 (1%, 1 ml) which served as the control. Group 2 received ranitidine at a dose of 50-mg/kg-body weight, which served as standard for comparison. Group 3 to received Omeprazole at a dose of 30-mg/kg body weight, which served as standard for comparison. Group 4 received sucralfate at a dose of 400-mg/kg body weight, which served as standard for comparison. […] Lesions were induced 1 hour after ethanol challenge animals. The stomach was ligated at the pylorus under ether anesthesia. 4 hours after pylorus ligation, the animals were sacrificed and the contents drained and centrifuges at 5000 rpm for 10 minutes. Aliquots of supernatant were used for determination of total acid by titrating with 0.01N NaOH using topfers reagent and phenolphthalein indicators.

Pylorus ligated rats = assay: Pylorus ligated ulcers; details: 25 mg/kg, 4 hours after pylorus ligation; for inhibition at 25 mg/kg: Rattus norvegicus
Source text: as §1, §2
The animals were divided into 19 groups of 6 animals each. Animals were deprived of food for 48 hours but had free access to water. Group 1 received the vehicle Tween 80 (1%, 1 ml) which served as the control. Group 2 received ranitidine at a dose of 50-mg/kg-body weight, which served as standard for comparison. […] After one hour of administration of drug the stomach was ligated at the pylorus under ether anesthesia. 4 hours after pylorus ligation, the animals were sacrificed and the contents drained and centrifuges at 5000 rpm for 10 minutes. Aliquots of supernatant were used for determination of total acid by titrating with 0.01N NaOH using topfers reagent and phenolphthalein indicators. 4.
The animals were divided into 7 groups of 6 animals each. Animals were deprived of food for 48 hours but had free access to water. Group 1 received the vehicle Tween 80 (1%, 1 ml) which served as the control. Group 2 received ranitidine at a dose of 50-mg/kg-body weight, which served as standard for comparison. Group 3 to 7 received at a dose of 50, 25, 15, 10 and 5 mg/kg body weight respectively. After one hour of administration of drug the stomach was ligated at the pylorus under ether anesthesia. 4 hours after pylorus ligation, the animals were sacrificed and the contents drained and centrifuges at 5000 rpm for 10 minutes. Aliquots of supernatant were used for determination of total acid by titrating with 0.01N NaOH using topfers reagent and phenolphthalein indicators.

For `COc1c(OC2OC(CO)C(O)C(O)C2O)cc2oc(-c3ccccc3)cc(=O)c2c1O` (stereo not shown) [OA-G, 5-Hydroxy-6-methoxy-2-phenyl-7-(3,4,5-trihydroxy-6-hydroxyrnethyl-tetrahydro-pyran-2-yloxy)-chromen-4-one], the Inhibition % [1] was 19.52%, the “Ulcer index Mean(SE)” value [1] was 32.33 and the Inhibition % [2] was 32.05%. The “Ulcer index Mean(SE)” value [2] was 30.66, the Inhibition % [3] was 20.00% and the “Ulcer index Mean(SE)” value [3] was 53.33 (±6.66). The “Acidity Total mEg” value [3] was 36.66 (±0.88) mEg, the Gastric content [3] was 4.33 (±0.11) and the pH [3] was 4.31 (±0.11). For the same molecule, the “Acidity Total mEg” value (Pylorus ligated rats) was 41.66 (±1.66) m Eg, the Inhibition % (Pylorus ligated rats) was 30.16% and the “Ulcer index Mean(SE)” value (Pylorus ligated rats) was 35.00 (±2.88). The pH (Pylorus ligated rats) was 3.20 (±0.15).

With `O=c1cc(-c2ccccc2)oc2cc(O)cc(O)c12` [Chrysin, 5,7-dihydroxy-2-phenyl-chromen-4-one] the inhibition at 25 mg/kg [1] was 42.7%, the “Ulcer index Mean(SE)” value [1] was 23.03 and the inhibition at 25 mg/kg [2] was 46.7%. For the same molecule, the “Ulcer index Mean(SE)” value [2] was 24.06, the inhibition at 25 mg/kg [3] was 9.01% and the “Ulcer index Mean(SE)” value [3] was 60.66 (±2.88). The “Acidity Total mEg” value [3] was 48.00 (±2.20) mEg, the Gastric content [3] was 4.20 (±0.02) and the pH [3] was 3.20 (±0.40). For the same molecule, the “Acidity Total mEg” value (Pylorus ligated rats) was 56.00 (±0.82) m Eg, the Gastric content (Pylorus ligated rats) was 1.85 (±0.82) and the “Ulcer index Mean(SE)” value (Pylorus ligated rats) was 37.21 (±0.26). The pH (Pylorus ligated rats) was 4.00 (±0.40) and the inhibition at 25 mg/kg (Pylorus ligated rats) was 25.7%.

For `COc1c(OC(=O)c2ccc(C)cc2)cc2oc(-c3ccccc3)cc(=O)c2c1O` [ORPM-1, 4-methyl-benzoic acid 5-hydroxy-6-methoxy-4-oxo-2-phenyl-4-H-chromen-7-yl ester], the Inhibition % [1] was 24.23%, the “Ulcer index Mean(SE)” value [1] was 22.85 and the Inhibition % [2] was 16.91%. The “Ulcer index Mean(SE)” value [2] was 37.49, the Inhibition % [3] was 28.75% and the “Ulcer index Mean(SE)” value [3] was 47.50 (±1.11). For the same molecule, the “Acidity Total mEg” value [3] was 44.24 (±0.62) mEg, the Gastric content [3] was 3.0 (±1.50) and the pH [3] was 3.50 (±0.18). The “Acidity Total mEg” value (Pylorus ligated rats) was 45.24 (±0.30) m Eg, the Gastric content (Pylorus ligated rats) was 2.20 (±0.22) and the Inhibition % (Pylorus ligated rats) was 16.87%. The “Ulcer index Mean(SE)” value (Pylorus ligated rats) was 41.66 (±2.78) and the pH (Pylorus ligated rats) was 3.20 (±0.25).

With `O=c1cc(-c2ccccc2)oc2cc(OCCCN3CCOCC3)cc(O)c12` [CHM-2, 5-Hydroxy-7-(3-morpholin-4-yl-propoxy)-2-phenyl chromen-4-one] the inhibition at 25 mg/kg [1] was 35.1%, the “Ulcer index Mean(SE)” value [1] was 26.42 and the inhibition at 25 mg/kg [2] was 55.6%. For the same molecule, the “Ulcer index Mean(SE)” value [2] was 19.99, the inhibition at 25 mg/kg [3] was 25% and the “Ulcer index Mean(SE)” value [3] was 40.11 (±3.65). The “Acidity Total mEg” value [3] was 38.28 (±2.24) mEg, the Gastric content [3] was 2.8 (±0.72) and the pH [3] was 4.00 (±0.18). For the same molecule, the “Acidity Total mEg” value (Pylorus ligated rats) was 41.48 (±3.20) m Eg, the Gastric content (Pylorus ligated rats) was 1.88 (±0.62) and the “Ulcer index Mean(SE)” value (Pylorus ligated rats) was 25.82 (±2.00). For the same molecule, the pH (Pylorus ligated rats) was 3.79 (±0.20) and the inhibition at 25 mg/kg (Pylorus ligated rats) was 48.5%.

With `COc1cc(O)c2c(=O)cc(-c3ccccc3)oc2c1` [Methoxy chrysin, 5-hydroxy-7-methoxy-2-phenyl-chromen-4-one] the inhibition at 25 mg/kg [1] was 8.77%, the “Ulcer index Mean(SE)” value [1] was 27.14 and the inhibition at 25 mg/kg [2] was 11.3%. For the same molecule, the “Ulcer index Mean(SE)” value [2] was 40.00, the inhibition at 25 mg/kg [3] was 15% and the “Ulcer index Mean(SE)” value [3] was 46.66 (±1.66). For the same molecule, the “Acidity Total mEg” value [3] was 49.20 (±4.12) mEg, the Gastric content [3] was 3.9 (±0.40) and the pH [3] was 2.91 (±0.15). The “Acidity Total mEg” value (Pylorus ligated rats) was 47.20 (±2.40) m Eg, the Gastric content (Pylorus ligated rats) was 2.20 (±0.44) and the “Ulcer index Mean(SE)” value (Pylorus ligated rats) was 48.80 (±3.07). For the same molecule, the pH (Pylorus ligated rats) was 3.20 (±0.25) and the inhibition at 25 mg/kg (Pylorus ligated rats) was 2.62%.

`COc1c(O)cc2oc(-c3ccccc3)cc(=O)c2c1O` [Oroxylin A, 5,7-Dihydroxy-6-methoxy-2-phenylchromen-4-one] was tested, and the inhibition at 25 mg/kg [1] was 5.26%, the “Ulcer index Mean(SE)” value [1] was 38.57 and the inhibition at 25 mg/kg [2] was 5.81%. The “Ulcer index Mean(SE)” value [2] was 42.50, the inhibition at 25 mg/kg [3] was 27.5% and the “Ulcer index Mean(SE)” value [3] was 48.33 (±3.33). For the same molecule, the “Acidity Total mEg” value [3] was 48.24 (±2.84) mEg, the Gastric content [3] was 4.0 (±0.45) and the pH [3] was 3.19 (±0.73). For the same molecule, the “Acidity Total mEg” value (Pylorus ligated rats) was 55.24 (±2.40) m Eg, the Gastric content (Pylorus ligated rats) was 2.30 (±0.42) and the “Ulcer index Mean(SE)” value (Pylorus ligated rats) was 50.80 (±2.00). The pH (Pylorus ligated rats) was 2.74 (±0.24) and the inhibition at 25 mg/kg (Pylorus ligated rats) was 0%.

With `O=c1cc(-c2ccccc2)oc2cc(OC3OC(CO)C(O)C(O)C3O)cc(O)c12` (stereo not shown) [CG, 5-Hydroxy-2-phenyl-7-(3,4,5-trihydroxy-6-hydroxymethyl-tetrahydro-pyran-2-yloxy)-chromen-4-one] the inhibition at 25 mg/kg [1] was 47.7%, the “Ulcer index Mean(SE)” value [1] was 21.00 and the inhibition at 25 mg/kg [2] was 52%. The “Ulcer index Mean(SE)” value [2] was 21.66, the inhibition at 25 mg/kg [3] was 52.5% and the “Ulcer index Mean(SE)” value [3] was 31.66 (±4.41). The “Acidity Total mEg” value [3] was 20.01 (±4.41) mEg, the Gastric content [3] was 5.90 (±0.49) and the pH [3] was 5.90 (±0.49). For the same molecule, the “Acidity Total mEg” value (Pylorus ligated rats) was 44.33 (±2.33) m Eg, the Gastric content (Pylorus ligated rats) was 1.50 (±0.28) and the “Ulcer index Mean(SE)” value (Pylorus ligated rats) was 24.93 (±1.66). The pH (Pylorus ligated rats) was 3.50 (±0.28) and the inhibition at 25 mg/kg (Pylorus ligated rats) was 50.2%.
